This experiment deals with MV-4-11 cells. Put plainly: Gene expression microarray analysis (Affymetrix PrimeView) and GSEA. Format: cell-based, human. Also noted: RFU PODN (11730768_x_at) / Fold change /veh PODN (11730768_x_at) / RFU LINC00158 (11744669_a_at) / Fold change /veh LINC00158 (11744669_a_at) / RFU DUSP10 (11751237_a_at) / Fold change /veh DUSP10 (11751237_a_at) / RFU ID3 (11757404_x_at) / Fold change /veh ID3 (11757404_x_at) / RFU PLEKHG5 (11737974_s_at) / Fold change /veh PLEKHG5 (11737974_s_at) / RFU LRRC4B (11730491_at) / Fold change /veh LRRC4B (11730491_at) / RFU GIMAP4 (11747438_a_at) / Fold change /veh GIMAP4 (11747438_a_at) / RFU KRT8 (11758183_x_at) / Fold change /veh KRT8 (11758183_x_at) / RFU CNN1 (11734310_a_at) / Fold change /veh CNN1 (11734310_a_at) / RFU VPS37D (11726825_at) / Fold change /veh VPS37D (11726825_at) / RFU C10orf10 (11716522_x_at) / Fold change /veh C10orf10 (11716522_x_at) / RFU KIR2DL2 /// KIR2DL4 /// KIR2DL5A /// KIR2DL5B /// KIR2DS1 /// KIR2DS2 /// KIR2DS3 /// KIR2DS4 /// KIR3DL3 /// KIR3DL3 /// KIR3DS1 (11738374_at) / Fold change /veh KIR2DL2 /// KIR2DL4 /// KIR2DL5A /// KIR2DL5B /// KIR2DS1 /// KIR2DS2 /// KIR2DS3 /// KIR2DS4 /// KIR3DL3 /// KIR3DL3 /// KIR3DS1 (11738374_at) / RFU C1QL1 (11718748_at) / Fold change /veh C1QL1 (11718748_at) / RFU TMPRSS4 (11747572_a_at) / Fold change /veh TMPRSS4 (11747572_a_at) / RFU HAMP (11756126_x_at) / Fold change /veh HAMP (11756126_x_at) / RFU RNFT2 (11725882_a_at) / Fold change /veh RNFT2 (11725882_a_at) / RFU NR4A2 (11747474_a_at) / Fold change /veh NR4A2 (11747474_a_at) / RFU ABCC12 (11746883_a_at) / Fold change /veh ABCC12 (11746883_a_at) / RFU TMEM136 (11760407_x_at) / Fold change /veh TMEM136 (11760407_x_at) / RFU CLDN22 /// WWC2 (11732394_at) / Fold change /veh CLDN22 /// WWC2 (11732394_at) / RFU HLA-DPB1 (11760878_x_at) / Fold change /veh HLA-DPB1 (11760878_x_at) / RFU SPINT1 (11716480_a_at) / Fold change /veh SPINT1 (11716480_a_at) / RFU GAP43 (11754022_s_at) / Fold change /veh GAP43 (11754022_s_at) / RFU A4GNT (11735810_at) / Fold change /veh A4GNT (11735810_at) / RFU PRB3 (11715151_x_at) / Fold change /veh PRB3 (11715151_x_at) / RFU TUBB4B (11761932_at) / Fold change /veh TUBB4B (11761932_at) / RFU CAPN14 (11732068_a_at) / Fold change /veh CAPN14 (11732068_a_at) / RFU TMCC2 (11721928_a_at) / Fold change /veh TMCC2 (11721928_a_at) / RFU IRGQ (11745062_a_at) / Fold change /veh IRGQ (11745062_a_at) / RFU FAM174B (11720279_a_at) / Fold change /veh FAM174B (11720279_a_at) / RFU TMPRSS4 (11748680_a_at) / Fold change /veh TMPRSS4 (11748680_a_at) / RFU FAM212B (11763350_a_at) / Fold change /veh FAM212B (11763350_a_at) / RFU PLEKHG5 (11743358_a_at) / Fold change /veh PLEKHG5 (11743358_a_at) / RFU ZSCAN30 (11745921_a_at) / Fold change /veh ZSCAN30 (11745921_a_at) / RFU CMKLR1 (11741424_a_at) / Fold change /veh CMKLR1 (11741424_a_at) / RFU LOC101060620 /// MAPK8IP1 (11723275_at) / Fold change /veh LOC101060620 /// MAPK8IP1 (11723275_at) / RFU SPTSSB (11747773_x_at) / Fold change /veh SPTSSB (11747773_x_at) / RFU PRSS12 (11739890_at) / Fold change /veh PRSS12 (11739890_at) / RFU BIN1 (11741810_x_at) / Fold change /veh BIN1 (11741810_x_at) / RFU WNT11 (11732464_a_at) / Fold change /veh WNT11 (11732464_a_at) / RFU C10orf10 (11716521_a_at) / Fold change /veh C10orf10 (11716521_a_at) / RFU C5orf56 (11738089_at) / Fold change /veh C5orf56 (11738089_at) / RFU CYB561 (11721691_x_at) / Fold change /veh CYB561 (11721691_x_at) / RFU ANKRD19P (11752326_a_at) / Fold change /veh ANKRD19P (11752326_a_at) / RFU OR2T12 /// OR2T33 /// OR2T8 (11738714_s_at) / Fold change /veh OR2T12 /// OR2T33 /// OR2T8 (11738714_s_at) / RFU VCAN (11748164_a_at) / Fold change /veh VCAN (11748164_a_at) / RFU JSRP1 (11732532_at) / Fold change /veh JSRP1 (11732532_at) / RFU KRTAP10-11 (11738290_x_at) / Fold change /veh KRTAP10-11 (11738290_x_at) / RFU MYO3A (11730013_a_at) / Fold change /veh MYO3A (11730013_a_at) / RFU EBF3 (11725865_a_at) / Fold change /veh EBF3 (11725865_a_at) / RFU CAMK2N1 (11719241_x_at) / Fold change /veh CAMK2N1 (11719241_x_at) / RFU C5orf56 (11738088_a_at) / Fold change /veh C5orf56 (11738088_a_at) / RFU OLFML3 (11715873_a_at) / Fold change /veh OLFML3 (11715873_a_at) / RFU LOC100653217 /// NTM (11731650_a_at) / Fold change /veh LOC100653217 /// NTM (11731650_a_at) / RFU MAPK11 (11762145_a_at) / Fold change /veh MAPK11 (11762145_a_at) / RFU FIZ1 (11724087_x_at) / Fold change /veh FIZ1 (11724087_x_at) / RFU OASL (11726364_x_at) / Fold change /veh OASL (11726364_x_at) / RFU SOX15 (11748057_x_at) / Fold change /veh SOX15 (11748057_x_at) / RFU CD79A (11719716_a_at) / Fold change /veh CD79A (11719716_a_at) / RFU HIST1H1D (11736915_at) / Fold change /veh HIST1H1D (11736915_at) / RFU CASKIN2 (11723855_a_at) / Fold change /veh CASKIN2 (11723855_a_at) / RFU LOC730098 (11760151_x_at) / Fold change /veh LOC730098 (11760151_x_at) / RFU OR4N2 (11742367_at) / Fold change /veh OR4N2 (11742367_at) / RFU PRRT2 (11749266_a_at) / Fold change /veh PRRT2 (11749266_a_at) / RFU SNX32 (11753110_a_at) / Fold change /veh SNX32 (11753110_a_at) / RFU CDHR5 (11726645_a_at) / Fold change /veh CDHR5 (11726645_a_at) / RFU RCAN1 (11760418_a_at) / Fold change /veh RCAN1 (11760418_a_at) / RFU FAM167A (11723789_a_at) / Fold change /veh FAM167A (11723789_a_at) / RFU FAM26E (11764081_at) / Fold change /veh FAM26E (11764081_at) / RFU ISYNA1 (11749810_s_at) / Fold change /veh ISYNA1 (11749810_s_at) / RFU ACY1 (11761880_at) / Fold change /veh ACY1 (11761880_at) / RFU 11764098_at / Fold change /veh 11764098_at / RFU SAMD14 (11745864_x_at) / Fold change /veh SAMD14 (11745864_x_at) / RFU NPB (11741838_a_at) / Fold change /veh NPB (11741838_a_at) / RFU TMPRSS6 (11731388_a_at) / Fold change /veh TMPRSS6 (11731388_a_at) / RFU KRTAP10-2 (11738614_at) / Fold change /veh KRTAP10-2 (11738614_at) / RFU ARHGAP8 /// PRR5-ARHGAP8 (11727945_x_at) / Fold change /veh ARHGAP8 /// PRR5-ARHGAP8 (11727945_x_at) / RFU KRTAP5-7 /// NADSYN1 (11734609_at) / Fold change /veh KRTAP5-7 /// NADSYN1 (11734609_at) / RFU RASL12 (11751679_a_at) / Fold change /veh RASL12 (11751679_a_at) / RFU CDKN2B (11736163_a_at) / Fold change /veh CDKN2B (11736163_a_at) / RFU PRF1 (11729649_at) / Fold change /veh PRF1 (11729649_at) / RFU, ZNF638 /// ZNF638-IT1 / Fold change vs veh, ZNF638 /// ZNF638-IT1 / RFU, PANK3 / Fold change vs veh, PANK3 / RFU, SH3YL1 / Fold change vs veh, SH3YL1 / RFU, ZEB2 / Fold change vs veh, ZEB2 / RFU, NRIP1 / Fold change vs veh, NRIP1 / RFU, PTTG1IP / Fold change vs veh, PTTG1IP / RFU, CAPN2 / Fold change vs veh, CAPN2 / RFU, MED14 / Fold change vs veh, MED14 / RFU, SNORA58 / Fold change vs veh, SNORA58 / RFU, C1orf63 / Fold change vs veh, C1orf63 / RFU, LRRFIP1 / Fold change vs veh, LRRFIP1 / RFU, NDUFAF7 / Fold change vs veh, NDUFAF7 / RFU, SLC12A2 / Fold change vs veh, SLC12A2 / RFU, IBTK / Fold change vs veh, IBTK / RFU, ESF1 / Fold change vs veh, ESF1 / Fold change vs veh, TMEM50B / RFU, TAOK1 / Fold change vs veh, TAOK1 / RFU, ACBD3 / Fold change vs veh, ACBD3 / RFU, TMA16 / Fold change vs veh, TMA16 / RFU, RWDD3 / Fold change vs veh, RWDD3 / RFU, BCAT1 / Fold change vs veh, BCAT1 / RFU, EDEM3 / Fold change vs veh, EDEM3 / RFU, TMEM33 / Fold change vs veh, TMEM33 / RFU, WDR75 / Fold change vs veh, WDR75 / RFU, AHCTF1 / Fold change vs veh, AHCTF1 / RFU, TFRC / Fold change vs veh, TFRC / RFU, ZDHHC17 / Fold change vs veh, ZDHHC17 / RFU, NOM1 / Fold change vs veh, NOM1 / RFU, ARL8B / Fold change vs veh, ARL8B / RFU, ZBTB11 / Fold change vs veh, ZBTB11 / RFU, TAMM41 / Fold change vs veh, TAMM41 / RFU, KIAA1704 /// LOC100996395 / Fold change vs veh, KIAA1704 /// LOC100996395 / RFU, ING1 / Fold change vs veh, ING1 / RFU, TRMT61B / Fold change vs veh, TRMT61B / RFU, FUBP3 / Fold change vs veh, FUBP3 / RFU, TP53 / Fold change vs veh, TP53 / RFU, TNKS2 / Fold change vs veh, TNKS2 / RFU, ZFP14 / Fold change vs veh, ZFP14 / RFU, ACTR2 / Fold change vs veh, ACTR2 / RFU, PPP3R1 / Fold change vs veh, PPP3R1 / RFU, PIK3R1 / Fold change vs veh, PIK3R1 / RFU, HNRNPA1 / Fold change vs veh, HNRNPA1 / RFU, RNF170 / Fold change vs veh, RNF170 / RFU, ZNF28 / Fold change vs veh, ZNF28 / RFU, RNGTT / Fold change vs veh, RNGTT / RFU, OGT / Fold change vs veh, OGT / RFU, BRD1 / Fold change vs veh, BRD1 / RFU, MARS / Fold change vs veh, MARS / RFU, ZNF655 / Fold change vs veh, ZNF655 / RFU, FAHD1 / Fold change vs veh, FAHD1 / RFU, BDP1 / Fold change vs veh, BDP1 / RFU, LRRCC1 / Fold change vs veh, LRRCC1 / RFU, ARID1A / Fold change vs veh, ARID1A / RFU, ZNF146 / Fold change vs veh, ZNF146 / RFU, ZNF330 / Fold change vs veh, ZNF330 / RFU, GPN3 / Fold change vs veh, GPN3 / RFU, C9orf123 / Fold change vs veh, C9orf123 / RFU, N4BP2L2 / Fold change vs veh, N4BP2L2 / RFU, ARFIP1 / Fold change vs veh, ARFIP1 / RFU, FAM179B / Fold change vs veh, FAM179B / RFU, BCL10 / Fold change vs veh, BCL10 / RFU, UHRF1BP1L / Fold change vs veh, UHRF1BP1L / RFU, BET1 / Fold change vs veh, BET1 / RFU, CNOT2 / Fold change vs veh, CNOT2 / RFU, ZNF268 / Fold change vs veh, ZNF268 / Fold change vs veh, ZNF507 / RFU, DGCR2 / Fold change vs veh, DGCR2 / RFU, WDSUB1 / Fold change vs veh, WDSUB1 / Fold change vs veh, HSP90B1 /// MIR3652 / RFU, ADSS / Fold change vs veh, ADSS / RFU, GK / Fold change vs veh, GK / RFU, ZNF148 / Fold change vs veh, ZNF148 / RFU, TAF9 / Fold change vs veh, TAF9 / RFU, SLC1A5 / Fold change vs veh, SLC1A5 / RFU, SLMO2 / Fold change vs veh, SLMO2 / RFU, ABCC4 / Fold change vs veh, ABCC4 / RFU, LOC101060439 /// RAP1B / Fold change vs veh, LOC101060439 /// RAP1B / RFU, RFX7 / Fold change vs veh, RFX7 / RFU, GTPBP10 / Fold change vs veh, GTPBP10 / RFU, CNEP1R1 / Fold change vs veh, CNEP1R1 / RFU, BIVM-ERCC5 /// ERCC5 / Fold change vs veh, BIVM-ERCC5 /// ERCC5 / RFU, ILF3 / Fold change vs veh, ILF3 / RFU 11762660_at / Fold change /veh 11762660_at / RFU VCAN (11757783_s_at) / Fold change /veh VCAN (11757783_s_at) / RFU DDX43 (11728927_at) / Fold change /veh DDX43 (11728927_at) / RFU KRT8 (11758188_x_at) / Fold change /veh KRT8 (11758188_x_at) / RFU NKD1 (11759106_at) / Fold change /veh NKD1 (11759106_at) / RFU SRD5A1 (11742802_a_at) / Fold change /veh SRD5A1 (11742802_a_at) / RFU TPSAB1 /// TPSB2 (11721975_s_at) / Fold change /veh TPSAB1 /// TPSB2 (11721975_s_at) / RFU GSTM3 (11746129_a_at) / Fold change /veh GSTM3 (11746129_a_at) / RFU IL23R (11737362_x_at) / Fold change /veh IL23R (11737362_x_at) / RFU TMEM51 (11727254_a_at) / Fold change /veh TMEM51 (11727254_a_at) / RFU PIWIL2 (11732686_x_at) / Fold change /veh PIWIL2 (11732686_x_at) / RFU ORM1 (11744905_x_at) / Fold change /veh ORM1 (11744905_x_at) / RFU CCDC152 (11743942_at) / Fold change /veh CCDC152 (11743942_at) / RFU ECM1 (11717891_a_at) / Fold change /veh ECM1 (11717891_a_at) / RFU IL23R (11748794_a_at) / Fold change /veh IL23R (11748794_a_at) / RFU TNFAIP8L3 (11732012_x_at) / Fold change /veh TNFAIP8L3 (11732012_x_at) / RFU MBOAT4 (11741988_at) / Fold change /veh MBOAT4 (11741988_at) / RFU 11764193_at / Fold change /veh 11764193_at / RFU TMEM53 (11763286_at) / Fold change /veh TMEM53 (11763286_at) / RFU MAGEB2 (11727129_at) / Fold change /veh MAGEB2 (11727129_at) / RFU TMEM200A (11744735_a_at) / Fold change /veh TMEM200A (11744735_a_at) / RFU CCDC152 (11751479_a_at) / Fold change /veh CCDC152 (11751479_a_at) / RFU FAM211A (11726209_a_at) / Fold change /veh FAM211A (11726209_a_at) / RFU RGS16 (11746705_a_at) / Fold change /veh RGS16 (11746705_a_at) / RFU VCAN (11755009_s_at) / Fold change /veh VCAN (11755009_s_at) / RFU RHOB (11743442_s_at) / Fold change /veh RHOB (11743442_s_at) / RFU RGS16 (11720943_a_at) / Fold change /veh RGS16 (11720943_a_at) / RFU RGS16 (11720944_at) / Fold change /veh RGS16 (11720944_at) / RFU, VPS4B / Fold change vs veh, VPS4B / RFU, CREB1 / Fold change vs veh, CREB1 / RFU, DNAJC13 / Fold change vs veh, DNAJC13 / RFU, GNAQ / Fold change vs veh, GNAQ / RFU, CDK5R1 / Fold change vs veh, CDK5R1 / RFU, ZRANB3 / Fold change vs veh, ZRANB3 / RFU, CUL4A / Fold change vs veh, CUL4A / RFU, CCNY / Fold change vs veh, CCNY / RFU, UFL1 / Fold change vs veh, UFL1 / RFU, COG3 / Fold change vs veh, COG3 / RFU, DIAPH2 / Fold change vs veh, DIAPH2 / RFU, SKA2 / Fold change vs veh, SKA2 / RFU, AFF3 / Fold change vs veh, AFF3 / RFU, LMF1 / Fold change vs veh, LMF1 / RFU, IPO11 / Fold change vs veh, IPO11 / RFU, DFFB / Fold change vs veh, DFFB / RFU, FOXP1 / Fold change vs veh, FOXP1 / RFU, CARD8 / Fold change vs veh, CARD8 / RFU, STRN3 / Fold change vs veh, STRN3 / RFU, ADK / Fold change vs veh, ADK / RFU, RASSF2 / Fold change vs veh, RASSF2 / RFU, WIPF1 / Fold change vs veh, WIPF1 / RFU, LARP1B / Fold change vs veh, LARP1B / RFU, RASA1 / Fold change vs veh, RASA1 / RFU, RB1 / Fold change vs veh, RB1 / RFU, PPFIA1 / Fold change vs veh, PPFIA1 / RFU, MAT2A / Fold change vs veh, MAT2A / RFU, CCT5 / Fold change vs veh, CCT5 / RFU, WDR92 / Fold change vs veh, WDR92 / RFU, CUX1 / Fold change vs veh, CUX1 / RFU, TTC7A / Fold change vs veh, TTC7A / RFU, TMEM135 / Fold change vs veh, TMEM135 / RFU, DEPTOR / Fold change vs veh, DEPTOR / RFU, CPM / Fold change vs veh, CPM / RFU, DNAJB6 / Fold change vs veh, DNAJB6 / RFU, CACNA2D3 / Fold change vs veh, CACNA2D3 / RFU, DTX4 / Fold change vs veh, DTX4 / RFU, TFCP2 / Fold change vs veh, TFCP2 / RFU, GMCL1 /// GMCL1P1 / Fold change vs veh, GMCL1 /// GMCL1P1 / RFU, AEBP2 / Fold change vs veh, AEBP2 / RFU, SNHG1 /// SNORD22 /// SNORD25 /// SNORD26 /// SNORD27 /// SNORD28 /// SNORD29 /// SNORD31 / Fold change vs veh, SNHG1 /// SNORD22 /// SNORD25 /// SNORD26 /// SNORD27 /// SNORD28 /// SNORD29 /// SNORD31 / Fold change (Aza/veh), C12orf56 (ProbeSet 11735607_a_at) / Fold change (ACY-1035/veh), C12orf56 (ProbeSet 11735607_a_at) / Fold change (Aza/veh), FGFR1OP (ProbeSet 11751329_s_at) / Fold change (ACY-1035/veh), FGFR1OP (ProbeSet 11751329_s_at) / Fold change (Aza/veh), VPS36 (ProbeSet 11739960_a_at) / Fold change (ACY-1035/veh), VPS36 (ProbeSet 11739960_a_at) / RFU SYPL1 (11715823_x_at) / Fold change /veh SYPL1 (11715823_x_at) / RFU IGFBP7 (11715501_s_at) / Fold change /veh IGFBP7 (11715501_s_at) / RFU REEP3 (11722064_at) / Fold change /veh REEP3 (11722064_at) / RFU IGLL1 (11728026_x_at) / Fold change /veh IGLL1 (11728026_x_at): dose or concentration left out as unconfirmed. As to conditions: ProbeSet 11763895_x_at; LIST B.

As to `Nc1ncn([C@@H]2O[C@H](CO)[C@@H](O)[C@H]2O)c(=O)n1` [azacitidine], the “RFU, SNORA58” value stood at 17.25 RFU.

Source of the values: paper PMC5218480 (PLoS ONE, 2017).
